Experimental data from patent US6492328B2, “Novispirins: antimicrobial peptides” (priority 2000, dated 2002).
Read-outs that look alike come from different tables or passages of the source. Where no end group is shown, it is not given here.

Assays:
[1] = system: E. coli ML 35P; type: cell-based, Escherichia coli; details: mean ± SEM, n = 3
Method: Antimicrobial activity. Several different methods were used to examine the antimicrobial properties of novispirins, including: a) two-stage radial diffusion assays; b) colony counting assays; and c) standard microbroth dilution assays.
Antimicrobial activity was tested in media with low, normal or high salinity. In radial diffusion assays, this was accomplished by using a low salt “basic medium” containing 0.3 mg of trypticase soy broth powder/ml of 10 mM sodium phosphate buffer, pH 7.4. Media with “normal” or “high” salinity were prepared by supplementing the basic medium with 100 mM NaCl to obtain media with normal salinity, or with 175-200 mM NaCl to obtain high salt media. Retention of activity against P. aeruginosa in high salt media is important because airway fluids from cystic fibrosis patients are reported to show hypersalinity, and other sites—including skin surfaces surfaces and the urinary bladder—may have locally high salt concentrations.
The relative activities of ovispirin and the novispirins against two organisms, E. coli and a multi-resistant strain of P. aeruginosa, are shown in FIG. 1. The MICs were obtained by radial diffusion assays performed under low, normal, and high salt conditions (which are denoted along the X-axis as 0, 100 and 200 mM NaCl, respectively).
Table 1 compares the activity of novispirins against these Gram-negative bacteria with its activity against Listeria monocytogenes, Staphylococcus aureus and C. albicans. […] Note that novispirins show activity against these Gram-positive bacteria when tested in physiological (100 mM NaCl) salt concentrations, and also that Novispirin G10 is quite active against C. albicans. Although neither ovispirin nor novispirins retained activity against C. albicans or the Gram positives under very high salt conditions (200 mM NaCl), they remained active against the Gram-negatives under these conditions. Consequently, even if the airways' NaCl concentrations are exceptionally high in CF patients, this factor will not impair the ability of ovispirin or novispirins to kill P. aeruginosa.

[2] = system: S. maltophilia 18CP; assay: Novispirins vs S. maltophilia (Table 5); type: cell-based, Stenotrophomonas maltophilia; design: unit not given here; details: strain 18CP
Method: (§1) Microorganisms used in this study included 13 different Pseudomonas aeruginosa strains. The AML-654 and LZ-1 strains are recent clinical isolates from the UCLA Clinical Microbiology laboratory. Nine strains (5 mucoid, 4 nonmucoid) were recent CF isolates provided by Dr. Lisa Saiman. All of the P. aeruginosa strains except PAO-1 strain were resistant to multiple conventional antibiotics, and all 9 CF isolates were resistant to 250 μg/ml of tobramycin. We have also tested 5 strains each of Stenotrophomonas maltophilia and Burkholderia cepacia from CF patients (also provided by Dr. Lisa Saiman), two strains of Escherichia coli (ML-35p and DH-5a), and single strains of Staphylococcus aureus[MRSA (methicillin-resistant S. aureus)] and C. albicans.

[3] = system: S. maltophilia 36CN; assay: Novispirins vs S. maltophilia (Table 5); type: cell-based, Stenotrophomonas maltophilia; design: unit not given here; details: strain 36CN
Method: as §1

[4] = system: S. maltophilia 42CK; assay: Novispirins vs S. maltophilia (Table 5); type: cell-based, Stenotrophomonas maltophilia; design: unit not given here; details: strain 42CK
Method: as §1

[5] = system: S. maltophilia 47CG; assay: Novispirins vs S. maltophilia (Table 5); type: cell-based, Stenotrophomonas maltophilia; design: unit not given here; details: strain 47CG
Method: as §1

[6] = system: S. maltophilia 51Cl; assay: Novispirins vs S. maltophilia (Table 5); type: cell-based, Stenotrophomonas maltophilia; design: unit not given here; details: strain 51Cl
Method: as §1

[7] = system: E. coli; assay: Two stage radial diffusion assay with 10 mM HEPES, G10 variants (Table 8); type: cell-based; details: mean ± SEM, n = 3, in µg/mL
From the text: (§2) Amidation (—NH2) of the carboxy terminus in some of the novispirin G10 variants was designed to increase overall positive charge. The sequences of these peptides and their net charge is shown below in Table 7. The fractional (and pH dependent) charge on histidine12 was ignored in this calculation.
(§3) In Table 8, MIC signifies minimal inhibitory concentration, as determined by two stage radial diffusion assays. […] Shaded boxes show results that represent a significant improvement of activity (p<0.01 by t-test), relative to novispirin G10. […] None of the above G10 novispirin derivatives caused any hemolysis of human red blood cells, even when tested at 80 μg/ml. It is likely that other cationic amino acids (e.g., lysine, ornithine, etc) could also be used in position 12 to achieve better activity in the presence of calcium and magnesium ions.

[8] = system: K. pneumoniae; assay: as above; type: cell-based; details: mean ± SEM, n = 3, in µg/mL
From the text: as §2, §3

[9] = system: P. aeruginosa; assay: as above; type: cell-based; details: mean ± SEM, n = 3, in µg/mL
From the text: as §2, §3

[10] = system: S. aureus; assay: as above; type: cell-based; details: mean ± SEM, n = 3, in µg/mL
From the text: as §2, §3

[11] = system: human red blood cells; type: cell-based
Method: Hemolytic Activity: This was tested by incubating various concentrations of peptide with a suspension (2.8% v/v) of washed human, murine, sheep or bovine red cells in PBS. After 30 min at 37C, the tubes were centrifuged and the percentage of total hemoglobin released to the supernatant was measured.
Similar results were obtained with murine red blood cells. In contrast, none of these peptides were appreciably hemolytic towards sheep or bovine red blood cells.

[12] = system: MRC-5 human lung fibroblasts; type: cell-based
From the text: FIG. 5 compares the cytotoxicity of these peptides for MRC-5 human lung fibroblasts.

[13] = Acute toxicity studies in mice, intravenous; type: in vivo
Method: In vivo toxicity. Acute toxicity studies were performed in mice. 3/3 mice survived an intravenous dose of 10 mg novispirin G10/kg body weight, and 1/3 survived a dose of 20 mg/kg.

[14] = system: C. trachomatis serovar E; assay: McCoy cell shell vial assay, inclusion-forming units; type: cell-based, Chlamydia trachomatis; details: 100 μg/ml, pre-incubation assays
Method: (§4) C. trachomatis serovar L2 causes invasive LGV, whereas serovars D and E represent typical genital strains. The effect of G-10 on Chlamydia trachomatis serovars (L2, D and E) was determined using standard and modified McCoy cell shell vial assays and varying concentrations of peptide. In the standard assay, the Chlamydia/peptide mixture was pre-incubated for 2 hr., then removed from the host cell monolayer before the 48-hr. incubation. In the modified assay, the pre-incubation mixture was left on the monolayer for the 48 hr. incubation. In a third assay, G-10 and Chlamydia were mixed and infected to cell monolayers without pre-incubation, and examined after 48 hr. Inclusion-forming units (IFUs) were scored to measure the peptide's inhibitory effect.

[15] = system: C. trachomatis serovar D; assay: as above; type: cell-based, Chlamydia trachomatis; design: dose or concentration left out as unconfirmed
Method: as §4

[16] = system: C. trachomatis serovar L2; assay: as above; type: cell-based, Chlamydia trachomatis; design: dose or concentration left out as unconfirmed
Method: as §4

[17] = system: E. coli ML 35P; details: ML 35P
From the text: Effect of serum. […] Because serum can be present in an inflammatory focus or exudate, the ability to function in the presence of serum would be a desirable property.
In these experiments, the underlay gel contained 60% RPMI-1640, ±2.5 or 20% normal human serum (NHS). The remainder of the solution was phosphate-buffered saline

[18] = Very high salinity (+200 mM NaCl)

KNLRRIIRKGIHIIKKYG-OH [G10 Novispirin, K N L R R I I R K G I H I I K K Y G]
MIC ([1]; Low Salt (+0 mM NaCl)): 0.1 ± 0.0 µg/mL
MIC ([1]; Normal salinity (+100 mM NaCl)): 0.1 ± 0.0 µg/mL
MIC [1, 18]: 1.8 ± 0.8 µg/mL
activity vs S. maltophilia ([2]; +100 mM NaCl): 0.70
activity vs S. maltophilia ([2]; +175 mM NaCl): 1.30
activity vs S. maltophilia ([2]; LOW SALT CONDITIONS): 0.40
activity vs S. maltophilia ([3]; +100 mM NaCl): 0.29
activity vs S. maltophilia ([3]; +175 mM NaCl): 0.36
activity vs S. maltophilia ([3]; LOW SALT CONDITIONS): 0.15
activity vs S. maltophilia ([4]; +100 mM NaCl): 0.67
activity vs S. maltophilia ([4]; +175 mM NaCl): 10.0
activity vs S. maltophilia ([4]; LOW SALT CONDITIONS): 0.43
activity vs S. maltophilia ([5]; +100 mM NaCl): 0.68
activity vs S. maltophilia ([5]; +175 mM NaCl): 0.63
activity vs S. maltophilia ([5]; LOW SALT CONDITIONS): 0.08
activity vs S. maltophilia ([6]; +100 mM NaCl): 3.57
activity vs S. maltophilia ([6]; +175 mM NaCl): 8.18
activity vs S. maltophilia ([6]; LOW SALT CONDITIONS): 0.45
MIC ([7]; +1 mM Ca): 21.2 ± 0.36
MIC ([7]; +1 mM Mg): 20.3 ± 0.1
MIC ([7]; No Ca/Mg): 0.09 ± 0.02
MIC ([8]; +1 mM Ca): >250
MIC ([8]; +1 mM Mg): >250
MIC ([8]; No Ca/Mg): 0.17 ± 0.03
MIC ([9]; +1 mM Ca): >250
MIC ([9]; +1 mM Mg): >250
MIC ([9]; No Ca/Mg): 0.17 ± 0.04
MIC ([10]; +1 mM Ca): 99.0 ± 5.7
MIC ([10]; +1 mM Mg): >79
MIC ([10]; No Ca/Mg): 22.7 ± 2.1
hemolytic activity for human red blood cells [11]: nonhemolytic
cytotoxicity for MRC-5 human lung fibroblasts [12]: virtually devoid of cytotoxicity
peak level ([13]; 10 mg/kg dose, if blood volume of a mouse is 5% of its mass): approximately 200 micrograms/ml
mice survived ([13]; intravenous dose of 10 mg/kg body weight): 3/3
mice survived ([13]; intravenous dose of 20 mg/kg): 1/3
inhibition of C. trachomatis serovar E [14]: completely inhibited
serovar D IFUs reduced [15]: 99.4-100%
serovar L2 IFUs reduced [16]: 92.7-99.1%

KNLRRIIRKIIHIIKKYG [Ovispirin, K N L R R I I R K I I H I I K K Y G]
MIC ([1]; Low Salt (+0 mM NaCl)): 0.7 ± 0.0 µg/mL
MIC ([1]; Normal salinity (+100 mM NaCl)): 0.7 ± 0.1 µg/mL
MIC [1, 18]: 1.5 ± 0.6 µg/mL
MIC [17]: 1.7 µg/mL
hemolytic activity for human red blood cells [11]: about as hemolytic for human red blood cells as protegrin PG-1

KNLRRIIRKTIHIIKKYG [T10 Novispirin, K N L R R I I R K T I H I I K K Y G]
MIC ([1]; Low Salt (+0 mM NaCl)): 0.5 ± 0.2 µg/mL
MIC ([1]; Normal salinity (+100 mM NaCl)): 0.3 ± 0.2 µg/mL
MIC [1, 18]: 2.7 ± 1.1 µg/mL
cytotoxicity for MRC-5 human lung fibroblasts [12]: virtually devoid of cytotoxicity
